Data on four compounds can be found in patent US12391737B2, “Soluble NPY2 receptor agonists” (Boehringer Ingelheim International GmbH, priority 2020, dated 2025).

Data set [1] concerns the target T1, human NPY5 receptor (hY5R) (Homo sapiens, UniProt Q15761).
T1 sequence (Q15761 1-445): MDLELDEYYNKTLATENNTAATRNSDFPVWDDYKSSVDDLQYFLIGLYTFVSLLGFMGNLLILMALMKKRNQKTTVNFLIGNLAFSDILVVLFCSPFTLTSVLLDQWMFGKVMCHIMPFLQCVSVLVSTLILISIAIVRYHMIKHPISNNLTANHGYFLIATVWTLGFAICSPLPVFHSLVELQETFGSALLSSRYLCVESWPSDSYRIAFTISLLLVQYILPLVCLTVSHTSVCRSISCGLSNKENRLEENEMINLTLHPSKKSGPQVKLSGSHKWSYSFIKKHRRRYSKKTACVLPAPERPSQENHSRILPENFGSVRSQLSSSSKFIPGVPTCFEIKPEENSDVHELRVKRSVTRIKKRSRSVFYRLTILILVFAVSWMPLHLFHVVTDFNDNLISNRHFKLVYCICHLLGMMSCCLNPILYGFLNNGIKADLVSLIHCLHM
Briefly: HTRF cAMP Gi assay, hY5R. (In general: TR-FRET usually uses a lanthanide donor and a delayed reading to cut background.)
Protocol: Briefly, the production of intracellular cAMP will generate a competition between unlabeled cAMP and exogenously added d2-cAMP for anti-cAMP antibodies conjugated to cryptate. CHO-K1 cells stably expressing the human NPY1, NPY2, NPY4 and NPY5 receptors were used with the cells brought to life from a frozen stock immediately before assay performance. 2000 cells per well were applied for all four NPY receptor subtype assays. A 384-well format was used applying a total volume of 20 μl using 5 μl cells, 2.5 μl peptide agonist, 2.5 μl forskolin and 5 μl of each of the fluorophores. […] Concentration-response evaluation of compounds was performed with 11 concentrations of agonist peptides (covering 3 decades). EC50 values were calculated by nonlinear regression using sigmoid concentration-response with variable slope.

A further data set can be described thus: Solubility determination. The conditions noted are these: for Sol6: pH 6; for Sol7: pH 7. In outline:
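First, TFA-salt peptide was added to 0.1 M sodium diphosphate (pH 6.4 or 7.0) to 10 mg/ml and shaken 2 h at room temperature. Next, insoluble material was filtered off. Finally, filtrate and control, each 1 mg/ml in 50% acetonitrile, were compared by reversed-phase chromatography.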

Data set [2] has as its target T2, Human Neuropeptide Y2 Receptor (Homo sapiens, UniProt P49146).
T2 construct: purchased CHEMICON HTS066M
T2 sequence (P49146 1-381): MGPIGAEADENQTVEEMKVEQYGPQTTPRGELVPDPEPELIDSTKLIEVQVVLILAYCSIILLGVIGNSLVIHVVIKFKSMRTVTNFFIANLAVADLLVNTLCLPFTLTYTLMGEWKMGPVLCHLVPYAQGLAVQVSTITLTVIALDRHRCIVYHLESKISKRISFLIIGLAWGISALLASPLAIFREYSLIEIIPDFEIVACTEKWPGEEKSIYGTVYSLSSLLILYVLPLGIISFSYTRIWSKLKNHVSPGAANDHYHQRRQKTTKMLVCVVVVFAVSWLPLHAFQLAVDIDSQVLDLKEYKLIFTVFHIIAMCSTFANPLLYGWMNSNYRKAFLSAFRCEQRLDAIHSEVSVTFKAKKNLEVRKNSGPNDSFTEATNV
In words: Radioligand binding competition assay (RLB). The conditions noted are these: Table 3, 125I-PYY(1-36) competition; read-out: Ki. In outline:
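Peptides were serially diluted from 1 mM DMSO stocks and competed for radioligand binding to receptor membranes (0.5 μg/well) over 2 h at room temperature, pH 7.4 HEPES buffer. Bound radioactivity on filters was counted by scintillation, and IC50 was derived by nonlinear regression.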

Each structure is given as a SMILES string.

Usually EC50 stands for the concentration at which the effect is half-maximal. Read a low EC50 as a more potent agent. Broadly, the Ki is the equilibrium dissociation constant of an inhibitor or competing ligand from its target. Compound `CC(C)CC(=O)N[C@@H](C)C(=O)N1CCC[C@H]1C(=O)N[C@@H](C)C(=O)N[C@@H](CCCCNC(=O)CCCCCNC(=O)CC[C@H](NC(=O)CCCCCCCCCCCCCCCCC(=O)O)C(=O)O)C(=O)N1CCC[C@H]1C(=O)N[C@@H](CCC(=O)O)C(=O)N[C@@H](CCC(=O)O)C(=O)N[C@@H](CC(=O)O)C(=O)N[C@@H](C)C(=O)N[C@@H](CO)C(=O)N1CCC[C@H]1C(=O)N[C@@H](CCC(=O)O)C(=O)N[C@@H](CCC(=O)O)C(=O)N[C@@H](CC(C)C)C(=O)N[C@@H](CCC(N)=O)C(=O)N[C@@H](CCCNC(=N)N)C(=O)N[C@@H](Cc1ccc(O)cc1)C(=O)N[C@@H](Cc1ccc(O)cc1)C(=O)N[C@H](C(=O)N[C@@H](CO)C(=O)N[C@@H](CC(C)C)C(=O)N[C@@H](CCCNC(=N)N)C(=O)N[C@@H](Cc1c[nH]cn1)C(=O)N[C@@H](Cc1ccc(O)cc1)C(=O)N[C@@H](Cc1ccc(O)cc1)C(=O)N[C@@H](CC(N)=O)C(=O)N[C@@H](Cc1c[nH]c2ccccc12)C(=O)N[C@@H](CC(C)C)C(=O)N[C@H](C(=O)N[C@@H](CCCNC(=N)N)C(=O)N[C@@H](CCC(N)=O)C(=O)N[C@@H](CCCNC(=N)N)C(=O)N[C@@H](Cc1ccc(O)cc1)C(N)=O)[C@@H](C)O)C(C)C` [Compound 145, N{alpha-4}-(3-methylbutanoyl)-N{epsilon-7}-(6-[(4S)-4-carboxy-4-(17-carboxyheptadecanamido)butanamido]hexanoyl)-[4A,6A,7K,9E,18Q,22V,28Y,30W,31L]-hPYY(4-36)] returned an EC50 in data set [1] of more than 5000 nM. In the data set “Solubility determination”, the “Sol6” value stood at 7.2 mg/mL and the “Sol7” value came to 9.0 mg/mL. In addition, the Ki in data set [2] stood at 5.29 nM.

For `CC[C@H](C)[C@H](NC(=O)[C@H](CCC(=O)O)NC(=O)[C@H](CCC(=O)O)NC(=O)[C@@H]1CCCN1C(=O)[C@H](CO)NC(=O)[C@H](C)NC(=O)[C@H](CC(=O)O)NC(=O)[C@H](CCC(=O)O)NC(=O)[C@H](CCC(=O)O)NC(=O)[C@@H]1CCCN1C(=O)[C@H](CCCCNC(=O)CCCCCNC(=O)CC[C@H](NC(=O)CCCCCCCCCCCCCCCCC(=O)O)C(=O)O)NC(=O)[C@H](CCC(=O)O)NC(=O)[C@@H]1CCCN1C(=O)[C@H](C)NC(=O)CC(C)C)C(=O)N[C@@H](CCC(N)=O)C(=O)N[C@@H](CCCNC(=N)N)C(=O)N[C@@H](Cc1ccc(O)cc1)C(=O)N[C@@H](Cc1ccc(O)cc1)C(=O)N[C@H](C(=O)N[C@@H](CO)C(=O)N[C@@H](CC(C)C)C(=O)N[C@@H](CCCNC(=N)N)C(=O)N[C@@H](Cc1c[nH]cn1)C(=O)N[C@@H](Cc1ccc(O)cc1)C(=O)N[C@@H](Cc1ccc(O)cc1)C(=O)N[C@@H](CC(N)=O)C(=O)N[C@@H](Cc1c[nH]c2ccccc12)C(=O)N[C@@H](CC(C)C)C(=O)N[C@H](C(=O)N[C@@H](CCCNC(=N)N)C(=O)N[C@@H](CCC(N)=O)C(=O)N[C@@H](CCCNC(=N)N)C(=O)N[C@@H](Cc1ccc(O)cc1)C(N)=O)[C@@H](C)O)C(C)C` [Compound 147, N{alpha-4}-(3-methylbutanoyl)-N{epsilon-7}-(6-[(4S)-4-carboxy-4-(17-carboxyheptadecanamido)butanamido]hexanoyl)-[4A,7K,9E,17I,18Q,22V,28Y,30W,31L]-hPYY(4-36)], the EC50 in data set [1] was more than 5000 nM. Further, in the data set “Solubility determination”, the “Sol6” value was 9.4 mg/mL and the “Sol7” value was 9.2 mg/mL. Besides, the Ki in data set [2] turned out to be 5.04 nM.

Take `CC[C@H](C)[C@H](NC(=O)[C@H](CCC(=O)O)NC(=O)[C@H](CCC(=O)O)NC(=O)[C@@H]1CCCN1C(=O)[C@H](CO)NC(=O)[C@H](C)NC(=O)[C@H](CC(=O)O)NC(=O)[C@H](CCC(=O)O)NC(=O)[C@@H]1CCCN1C(=O)[C@@H]1CCCN1C(=O)[C@H](CCCCNC(=O)CCCCCNC(=O)CC[C@H](NC(=O)CCCCCCCCCCCCCCCCC(=O)O)C(=O)O)NC(=O)[C@H](CCC(=O)O)NC(=O)[C@@H]1CCCN1C(=O)[C@H](C)NC(=O)CC(C)C)C(=O)N[C@@H](CCC(N)=O)C(=O)N[C@@H](CCCNC(=N)N)C(=O)N[C@@H](Cc1ccc(O)cc1)C(=O)N[C@@H](Cc1ccc(O)cc1)C(=O)N[C@H](C(=O)N[C@@H](CO)C(=O)N[C@@H](CC(C)C)C(=O)N[C@@H](CCCNC(=N)N)C(=O)N[C@@H](Cc1c[nH]cn1)C(=O)N[C@@H](Cc1ccc(O)cc1)C(=O)N[C@@H](Cc1ccc(O)cc1)C(=O)N[C@@H](CC(N)=O)C(=O)N[C@@H](Cc1c[nH]c2ccccc12)C(=O)N[C@@H](CC(C)C)C(=O)N[C@H](C(=O)N[C@@H](CCCNC(=N)N)C(=O)N[C@@H](CCC(N)=O)C(=O)N[C@@H](CCCNC(=N)N)C(=O)N[C@@H](Cc1ccc(O)cc1)C(N)=O)[C@@H](C)O)C(C)C` [Compound 172, N{alpha-4}-(3-methylbutanoyl)-N{epsilon-7}-(6-[(4S)-4-carboxy-4-(17-carboxyheptadecanamido)butanamido]hexanoyl)-[4A,7K,9P,17I,18Q,22V,28Y,30W,31L]-hPYY(4-36)]: the EC50 in data set [1] is more than 5000 nM. Besides, in “Solubility determination”, the “Sol6” value worked out at 10.0 mg/mL and the “Sol7” value is more than 10.0 mg/mL. Moreover, the Ki in data set [2] amounted to 0.81 nM.

In turn, `CC[C@H](C)[C@H](NC(=O)[C@H](CCC(=O)O)NC(=O)[C@H](CCC(=O)O)NC(=O)[C@@H]1CCCN1C(=O)[C@H](CO)NC(=O)[C@H](C)NC(=O)[C@H](CC(=O)O)NC(=O)[C@H](CCC(=O)O)NC(=O)[C@H](CCC(=O)O)NC(=O)[C@H](C)NC(=O)[C@H](CCCCNC(=O)CCCCCNC(=O)CC[C@H](NC(=O)CCCCCCCCCCCCCCCCC(=O)O)C(=O)O)NC(=O)[C@H](CCC(=O)O)NC(=O)[C@@H]1CCCN1C(=O)[C@H](C)NC(=O)CC(C)C)C(=O)N[C@@H](CCC(N)=O)C(=O)N[C@@H](CCCNC(=N)N)C(=O)N[C@@H](Cc1ccc(O)cc1)C(=O)N[C@@H](Cc1ccc(O)cc1)C(=O)N[C@H](C(=O)N[C@@H](CO)C(=O)N[C@@H](CC(C)C)C(=O)N[C@@H](CCCNC(=N)N)C(=O)N[C@@H](Cc1c[nH]cn1)C(=O)N[C@@H](Cc1ccc(O)cc1)C(=O)N[C@@H](Cc1ccc(O)cc1)C(=O)N[C@@H](CC(N)=O)C(=O)N[C@@H](Cc1c[nH]c2ccccc12)C(=O)N[C@@H](CC(C)C)C(=O)N[C@H](C(=O)N[C@@H](CCCNC(=N)N)C(=O)N[C@@H](CCC(N)=O)C(=O)N[C@@H](CCCNC(=N)N)C(=O)N[C@@H](Cc1ccc(O)cc1)C(N)=O)[C@@H](C)O)C(C)C` [Compound 183, N{alpha-4}-(3-methylbutanoyl)-N{epsilon-7}-(6-[(4S)-4-carboxy-4-(17-carboxyheptadecanamido)butanamido]hexanoyl)-[4A,7K,8A,9E,17I,18Q,22V,28Y,30W,31L]-hPYY(4-36)] returned an EC50 in data set [1] of more than 5000 nM. In the data set “Solubility determination”, the “Sol6” value was determined as 8.4 mg/mL and the “Sol7” value turned out to be 8.7 mg/mL. In addition, the inhibitory constant (Ki) in data set [2] is 18.8 nM.
